Reference: the NIST ThermoML archive (doi:10.1021/acs.jced.8b00975)

Assay: xn = mol fraction of the nth substance listed
Details: Liquid, Vibrating tube method

C=C(C)C(=O)OCCN(C)C [2-(dimethylamino)ethyl methylpropenoate] + CCCO
mass density [kg/m3]
Details | 100 kPa | 5000 kPa | 10000 kPa | 15000 kPa | 20000 kPa | 25000 kPa | 30000 kPa | 35000 kPa
303.15 K, x1 = 0.0307 | – | – | – | – | 820.75 | 824.03 | 827.2 | 830.29
303.15 K, x1 = 0.0599 | – | – | – | – | 829.13 | 832.41 | 835.6 | 838.73
303.15 K, x1 = 0.1003 | – | – | – | – | 839.84 | 843.1 | 846.24 | 849.31
303.15 K, x1 = 0.201 | – | – | – | 858.56 | 861.95 | 865.23 | 868.44 | 871.66
303.15 K, x1 = 0.3004 | – | – | – | 875.68 | 879.16 | 882.5 | 885.74 | 888.87
303.15 K, x1 = 0.4007 | – | – | – | 889.57 | 893.03 | 896.41 | 899.73 | 903.03
303.15 K, x1 = 0.4507 | – | – | – | 895.39 | 898.86 | 902.25 | 905.59 | 908.92
303.15 K, x1 = 0.4985 | – | – | – | 900.58 | 904.06 | 907.45 | 910.79 | 914.12
303.15 K, x1 = 0.5535 | – | – | – | 905.89 | 909.38 | 912.79 | 916.16 | 919.52
303.15 K, x1 = 0.5907 | – | – | – | 909.22 | 912.68 | 916.07 | 919.43 | 922.81
303.15 K, x1 = 0.7009 | – | – | – | 917.6 | 921.09 | 924.52 | 927.94 | 931.39
303.15 K, x1 = 0.8 | – | – | – | 924.17 | 927.7 | 931.16 | 934.59 | 938.01
303.15 K, x1 = 0.9043 | – | – | – | 929.96 | 933.53 | 937.03 | 940.48 | 943.91
303.15 K, x1 = 0.9269 | – | – | – | 931 | 934.55 | 938.03 | 941.51 | 945.01
303.15 K, x1 = 0.9551 | – | – | – | 932.41 | 935.97 | 939.47 | 942.94 | 946.41
313.15 K, x1 = 0.0303 | 797.13 | 801.51 | 805.58 | 809.4 | 813.02 | 816.51 | 819.93 | 823.33
313.15 K, x1 = 0.0602 | 805.6 | 809.95 | 814.02 | 817.86 | 821.5 | 825 | 828.39 | 831.72
313.15 K, x1 = 0.1007 | 816.21 | 820.42 | 824.41 | 828.2 | 831.83 | 835.35 | 838.78 | 842.17
313.15 K, x1 = 0.2003 | 838.07 | 842.22 | 846.16 | 849.93 | 853.55 | 857.04 | 860.44 | 863.76
313.15 K, x1 = 0.2989 | 854.98 | 859.16 | 863.14 | 866.94 | 870.58 | 874.08 | 877.48 | 880.8
313.15 K, x1 = 0.4005 | 869.05 | 873.2 | 877.16 | 880.94 | 884.58 | 888.1 | 891.52 | 894.87
313.15 K, x1 = 0.4513 | 875.07 | 879.17 | 883.11 | 886.91 | 890.57 | 894.1 | 897.51 | 900.82
313.15 K, x1 = 0.5026 | 880.52 | 884.58 | 888.5 | 892.29 | 895.96 | 899.51 | 902.95 | 906.3
313.15 K, x1 = 0.5521 | 885.29 | 889.39 | 893.33 | 897.12 | 900.78 | 904.32 | 907.74 | 911.06
313.15 K, x1 = 0.6025 | 889.7 | 893.77 | 897.71 | 901.52 | 905.22 | 908.79 | 912.25 | 915.59
313.15 K, x1 = 0.6976 | 897.07 | 901.19 | 905.15 | 908.97 | 912.65 | 916.22 | 919.67 | 923.02
313.15 K, x1 = 0.8037 | 903.96 | 908.07 | 912.04 | 915.87 | 919.56 | 923.14 | 926.61 | 929.99
313.15 K, x1 = 0.9043 | 909.46 | 913.62 | 917.61 | 921.46 | 925.17 | 928.79 | 932.32 | 935.78
313.15 K, x1 = 0.933 | 910.82 | 914.96 | 918.95 | 922.81 | 926.56 | 930.22 | 933.79 | 937.29
313.15 K, x1 = 0.9605 | 912.22 | 916.36 | 920.35 | 924.21 | 927.96 | 931.63 | 935.23 | 938.78
